Experimental data as given in paper PMC9822352, “Design, Synthesis and Evaluation of New Multifunctional Benzothiazoles as Photoprotective, Antioxidant and Antiproliferative Agents” (Molecules, 2022).

Experiments:
[1] = Photostability study of 3% formulation (post-irradiation filtering parameters); settings: 3% in formulation, post irradiation
Excerpt: To outline the efficacy and safety profile of a sunscreen formulation, it is essential to provide data relating to photostability. It is possible to provide photodegradation data by recording, pre- and post-irradiation, the transmittance of PMMA plates with finger-coat formulations subjected to a dose of UVA capable of causing erythema, according to the criteria of Garoli et al.. By means of Equations (2) and (3) it was possible to evaluate the residual percentage of SPF in vitro and of UVA-PF for all the prepared formulations. Of greatest interest are the values obtained for the derivatives BZTcin2 and BZTcin4.
To determine the photostability, the previously reported method was adopted, which consists in preparing each plate as mentioned above and subjecting it to solar irradiation quantified as the minimum dose of UVA equivalent to an effective radiant exposure of erythema. The protocol stipulates that, before and after exposure to sunlight, the transmission of the sun protection layer in the range of 290–400 nm is recorded.
Using Equations (2) and (3) below, the residual percentage of SPF in vitro (% SPFeff.) and UVA-PF (% UVA-PFeff.) have been obtained, which, if greater than or equal to 80, can classify a filter as photostable. %SPFeff. = in vitro SPFafter/in vitro SPFbefore × 100(2) %UVA − PFeff. = UVA − PFafter/UVA − PFbefore × 100(3)

[2] = In vitro filtering parameters of O/W sunscreen formulation containing 3% compound (modified Diffey-Robson, PMMA plates); settings: 3% in formulation, before irradiation
Excerpt: All synthesized compounds were formulated at 3% and their photoprotective efficacy, determined by spectrophotometric measurements using the modified Diffey-Robson method, was compared with that of the lead compound PBSA (used at 3% in the same formulation) and using the base without active as a control (Table 2).
The synthesized compounds were incorporated at a concentration of 3% in a typical oil-in-water sunscreen formulation, to evaluate the filtering parameters, and have the following ingredient composition:
INCI (International Nomenclature Cosmetic Ingredients): aqua, glycerin, Euxyl PE 9010, xanthan gum, Tribehenin PEG-20 Esters, cetearyl alcohol, dicaprylyl carbonate, PPG-26-Buteth-26 (and) PEG-40 Hydrogenated Castor Oil (and) water, C12-C15 Alkyl Benzoate, and Sodium hydroxide (sol. 10%).
As previously reported the protocol indicates to spread 32.5 mg of each formulation on 25 cm^2 PMMA plates with the fingers. Each formulation was tested in triplicate, and five measurements were recorded for each dish, following a 15–30 min incubation in the dark at room temperature. UV transmittance data was recorded using a UV-VIS spectrophotometer in the range 290–400 nm. The blank plate, SPF, UVA-PF and critical wavelength were obtained by SPF Calculator software (version 2.1), Shimadzu, Milan, Italy).

[3] = UV spectra in solution (MeOH-DMSO): λmax and molar extinction coefficient; type: physicochemical; settings: for ε (molar extinction coefficient): at λmax, Lambert-Beer equation, in M-1 cm-1 (unit assumed); for λmax: solution in MeOH-DMSO, 290–400 nm
Experimental: We next investigated the protective potential against UV radiation of each compound. Specifically, in vitro tests were conducted to determine the parameters related to absorption in the UV spectrum and those fundamental to the relative evaluation of the filtering potential and thus candidature as possible UV sunscreen ingredients of the candidates under examination, including λ critical and SPF (sun protection factor). Since the SPF is correlated to the UV quantitative absorption of the substances, the wavelength of maximum absorption (λmax) and the molar extinction coefficient (ε) of the derivatives in solution (MeOH-DMSO) were evaluated (Figures S1 and S2, Supplementary Materials). The UV spectra of the compounds BZTidr1–6 and BZTcin1–5 were recorded in the UVA-UVB range (290–400 nm) to evaluate their profile and compare it to that of the PBSA, a commercial UVB filter that has a λmax of 302 nm. After this peak, the absorbance of PBSA drops, reaching almost zero in the 325 nm range, and thus not providing absorption in the UVA region.
Once the λmax of each derivative was established, the molar extinction coefficient ε was calculated by applying the Lambert-Beer equation (Table S1, Supplementary Materials): the higher this value, the greater the ability of the compound under examination to absorb UV radiation. […] The excellent values of BZTidr1, BZTidr2 and BZTidr3 are ascribed to the aforementioned hyperchromic shift. In regard to the BZTcin1–5 series, the molar extinction coefficients calculated were very high, and the best values were those of BZTcin1, BZTcin2 and BZTcin3, also attributable to the hyperchromic shift of the absorption spectra. For both series, the excellent absorption capacity of ultraviolet radiation can be traced back to the high π-type conjugation that characterizes them.

[4] = FRAP (Ferric Reducing Antioxidant Power) assay; settings: Trolox standard, 37 °C 10 min, 593 nm; mean ± SEM
Excerpt: The FRAP (Ferric Reducing Antioxidant Power) test allows the measurement of the ability of antioxidants to reduce ferric ion to ferrous. This method represents one of the simplest, quickest and least expensive methods for the determination of reducing properties on oxidized species in vitro.
The FRAP test (Ferric Reducing Antioxidant Power) is based on a colorimetric reaction and evaluates the ability of a sample of reducing ferric ions to ferrous ion while complexed with TPTZ (2,4,6-trispyridil-s-triazine). The FRAP solution was prepared from 0.1 M acetate buffer (pH 3.6), 10 mmol/L of TPTZ in 40 mM HCl, and 20 mM solution of FeCl3, with a 10:1:1 ratio, as described. Then, 1.9 mL of this solution was incubated with 0.1 mL of the sample solution at 37 °C for 10 min. The absorbance was read with a UV-Vis spectrophotometer at a 593 nm wavelength, relative to the maximum peak of absorbance of Fe^2+-TPTZ complex. Trolox® was used as a standard and the results are expressed as µmolTE/g.

[5] = DPPH radical scavenging test; settings: compound at 1 mg/mL, 30 min, 517 nm; mean ± SEM
Experimental: The DPPH assay is widely used, and the simplest and fastest in vitro method for evaluating the antioxidant power of extracts or isolated compounds; it is based on the depletion of the 2,2-diphenyl-1-picrylhydrazyl radical (DPPH˙) by an antioxidant molecule with scavenger activity. This is an extremely sensitive test that can detect the activity of active ingredients present in very low concentrations.
The procedure used was adapted from Wang et al.. Briefly, 0.750 mL of a methanolic solution of each tested compound was treated with 1.5 mL of DPPH solution (0.004%) in MeOH. Samples were stored in the dark at room temperature for 30 min, and the absorbance value was read with a spectrophotometer at 517 nm, which is the maximum peak of absorbance relative to the DPPH radical absorption spectra. The values obtained were fitted into Equation (1) and converted to inhibition percentage (%) of the radical:DPPH inhibition percentage (%) = 100 × [1 − A1/A0](1) where A1 and A0 were, respectively, the absorbance recorded with and without the sample, which are directly proportional to DPPH residual concentration in the sample and DPPH concentration in the control (0.750 of MeOH and 1.5 mL of DPPH solution). […] A linear regression was performed to calculate the sample concentration able to eliminate 50% of DPPH free radicals.

[6] = system: HaCat keratinocytes; assay: Cell growth inhibition assay, HaCat; type: cell-based, human; settings: Homo sapiens, HaCaT; 24 h incubation, cell count
Experimental: (§1) All synthesized compounds were tested in order to evaluate their in vitro antiproliferative activity. The human melanoma Colo-38 cell line was selected as a tumor skin model, while the immortalized human HaCaT keratinocytes were chosen as a control for the evaluation of the cytotoxicity towards non-cancerous cells and of the selectivity towards tumor cell lines. […] The selectivity index (SI) was also calculated and is the ratio between the IC50 of a given compound towards the non-cancerous cell line and the IC50 of the same compound towards the tumor cell line.
(§2) Cell growth inhibition assays were carried out using human melanoma Colo-38 cells and skin HaCat keratinocytes cells. Human melanoma Colo-38 cells were kindly provided by Dr. Patrizio Giacomini (Laboratory of Immunology, Regina Elena Institute, Rome, Italy). HaCat cells were kindly provided by Istituto Zooprofilattico Sperimentale della Lombardia e dell’Emilia Romagna, Brescia, Italy. Cell lines were seeded using concentrations of 40,000 cells/mL and 25,000 cells/mL, respectively. Colo-38 cells were maintained in RPMI 1640, supplemented with 10% fetal bovine serum (FBS), penicillin (100 Units mL^−1), and streptomycin (100 µg mL^−1). HaCat cells were maintained in DMEM, supplemented with 10% fetal bovine serum (FBS), penicillin (100 Units mL^−1), streptomycin (100 µg mL^−1) and glutamine (2 mM); the incubation was performed at 37 °C in a 5% CO2 atmosphere. Tested compounds were dissolved in MeOH/DMSO (1:1) to obtain 50 mM stock solutions and diluted before cell treatment in MeOH 100%. The tested compounds were added at serial dilutions to the cell cultures (from 0.1 to 100 µM) and incubated for 24 h further. Cells were then harvested, suspended in physiological solution, and counted with a Z2 Coulter Counter (Coulter Electronics, Hialeah, FL, USA). The cell number/mL and the IC50 values were determined when untreated cells were in the log phase of cell growth. Cells treated with vehicles and untreated cells were placed in each plate.

[7] = system: melanoma Colo-38 cells; assay: Cell growth inhibition assay, Colo-38; type: cell-based, human; settings: Homo sapiens; 24 h incubation, cell count
Experimental: as §1, §2

melting point	ε (molar extinction coefficient) [3]	λmax [3]	IC50 [7]	Compound	SPF [1]	UVA/UVB [1]	UVAPF [1]	λc [1]	SPF [2]	UVA/UVB [2]	UVAPF0 [2]	λc [2]	FRAP [4]	DPPH (% Inhibition) [5]	IC50 [6]
208 to 215 °C	29641.85	333.1 nm	–	COc1ccc(/C=N/NC(=O)c2nc3ccccc3s2)cc1 [BZTidr3, (E)-N′-(4-methoxybenzylidene)benzo[d]thiazole-2-carbohydrazide]	1.31	1.11	1.41	387 nm	1.31	1.11	1.44	387 nm	273.99 ± 10.12 µmolTE/g	24.25 ± 1.38%	–
> 280 °C	22183.99	346.2 nm	92.9 ± 1.62 µM	O=C(N/N=C/c1ccc(O)c(O)c1)c1nc2ccccc2s1 [BZTidr4, (E)-N′-(3,4-dihydroxybenzylidene)benzo[d]thiazole-2-carbohydrazide]	1.63	1.05	1.64	389 nm	1.53	1.05	1.65	389 nm	–	>90.00%	> 100 µM
